# Test results published in paper PMC3917155 (Journal of medicinal chemistry, 2013).
# System: R2(VC)
# Test: cells
# Set-up: species or system CHO sublines
# Conditions: 96 h, read-out: >1000
row,IC50,SMILES
1,> 1000 nM,Nc1nc2[nH]cc(CCCCc3ccc(C(=O)N[C@@H](CCC(=O)O)C(=O)O)cc3)c2c(=O)[nH]1 [compound 8]
2,> 1000 nM,Nc1nc2[nH]cc(CCCc3ccc(C(=O)N[C@@H](CCC(=O)O)C(=O)O)cc3)c2c(=O)[nH]1 [compound 7]
